Active and inactive are the calls of the source. The rule behind the calls is not given here.
Key:
[1] = target: von Hippel-Lindau disease tumor suppressor/Interleukin-1 receptor-associated kinase 1 (Homo sapiens, UniProt P51617+P40337); assay: Protac activity at IRAK1/VHL E3 ligase in HEK293T cells assessed as induction of IRAK1 degradation at 10 uM measured after 24 hrs by Western blot analysis relative to control; format: cell-based
[2] = target: T1, Mitogen-activated protein kinase kinase kinase 19 (Homo sapiens) (UniProt Q56UN5); assay: Inhibition of wild-type human partial length YSK4 (T1019 to H1328 residues) expressed in mammalian expression system at 1 uM by Kinomescan method
T1 sequence (whole entry): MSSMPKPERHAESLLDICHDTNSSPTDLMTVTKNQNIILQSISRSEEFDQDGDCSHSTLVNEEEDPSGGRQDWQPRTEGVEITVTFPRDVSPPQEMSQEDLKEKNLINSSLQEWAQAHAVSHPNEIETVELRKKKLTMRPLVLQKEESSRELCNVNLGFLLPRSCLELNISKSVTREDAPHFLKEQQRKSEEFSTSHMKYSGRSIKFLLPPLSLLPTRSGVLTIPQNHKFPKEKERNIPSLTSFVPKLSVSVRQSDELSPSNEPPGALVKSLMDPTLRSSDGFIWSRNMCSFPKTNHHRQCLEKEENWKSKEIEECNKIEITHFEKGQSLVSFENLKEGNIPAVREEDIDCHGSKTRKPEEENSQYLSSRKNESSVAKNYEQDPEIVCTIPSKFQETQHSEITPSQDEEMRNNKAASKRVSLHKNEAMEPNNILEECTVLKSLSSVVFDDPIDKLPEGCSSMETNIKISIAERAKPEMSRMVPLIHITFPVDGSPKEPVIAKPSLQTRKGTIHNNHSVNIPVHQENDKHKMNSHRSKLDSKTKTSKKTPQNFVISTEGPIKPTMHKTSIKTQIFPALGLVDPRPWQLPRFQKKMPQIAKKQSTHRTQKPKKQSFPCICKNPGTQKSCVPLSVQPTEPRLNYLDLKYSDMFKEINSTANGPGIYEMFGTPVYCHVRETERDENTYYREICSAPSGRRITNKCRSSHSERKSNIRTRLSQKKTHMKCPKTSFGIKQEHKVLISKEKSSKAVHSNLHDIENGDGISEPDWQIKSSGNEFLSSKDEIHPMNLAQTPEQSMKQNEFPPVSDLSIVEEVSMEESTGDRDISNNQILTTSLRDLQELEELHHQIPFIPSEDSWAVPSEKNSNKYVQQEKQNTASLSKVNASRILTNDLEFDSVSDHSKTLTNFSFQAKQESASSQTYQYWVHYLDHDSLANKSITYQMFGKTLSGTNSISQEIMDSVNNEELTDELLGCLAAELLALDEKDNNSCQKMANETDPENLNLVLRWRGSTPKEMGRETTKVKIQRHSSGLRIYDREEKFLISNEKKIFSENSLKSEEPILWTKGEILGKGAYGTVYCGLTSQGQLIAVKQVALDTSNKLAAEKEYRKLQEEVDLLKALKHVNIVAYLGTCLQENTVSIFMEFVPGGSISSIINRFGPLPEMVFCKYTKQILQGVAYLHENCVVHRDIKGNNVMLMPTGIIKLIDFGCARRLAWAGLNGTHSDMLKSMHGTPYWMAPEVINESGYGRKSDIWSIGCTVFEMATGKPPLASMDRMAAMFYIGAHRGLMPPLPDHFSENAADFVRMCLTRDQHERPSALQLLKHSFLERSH

[3] = target: T2, Cyclin-G-associated kinase (Homo sapiens) (UniProt O14976); assay: Inhibition of wild-type human partial length GAK (G13 to Y338 residues) expressed in bacterial expression system at 1 uM by Kinomescan method relative to control
T2 sequence (whole entry): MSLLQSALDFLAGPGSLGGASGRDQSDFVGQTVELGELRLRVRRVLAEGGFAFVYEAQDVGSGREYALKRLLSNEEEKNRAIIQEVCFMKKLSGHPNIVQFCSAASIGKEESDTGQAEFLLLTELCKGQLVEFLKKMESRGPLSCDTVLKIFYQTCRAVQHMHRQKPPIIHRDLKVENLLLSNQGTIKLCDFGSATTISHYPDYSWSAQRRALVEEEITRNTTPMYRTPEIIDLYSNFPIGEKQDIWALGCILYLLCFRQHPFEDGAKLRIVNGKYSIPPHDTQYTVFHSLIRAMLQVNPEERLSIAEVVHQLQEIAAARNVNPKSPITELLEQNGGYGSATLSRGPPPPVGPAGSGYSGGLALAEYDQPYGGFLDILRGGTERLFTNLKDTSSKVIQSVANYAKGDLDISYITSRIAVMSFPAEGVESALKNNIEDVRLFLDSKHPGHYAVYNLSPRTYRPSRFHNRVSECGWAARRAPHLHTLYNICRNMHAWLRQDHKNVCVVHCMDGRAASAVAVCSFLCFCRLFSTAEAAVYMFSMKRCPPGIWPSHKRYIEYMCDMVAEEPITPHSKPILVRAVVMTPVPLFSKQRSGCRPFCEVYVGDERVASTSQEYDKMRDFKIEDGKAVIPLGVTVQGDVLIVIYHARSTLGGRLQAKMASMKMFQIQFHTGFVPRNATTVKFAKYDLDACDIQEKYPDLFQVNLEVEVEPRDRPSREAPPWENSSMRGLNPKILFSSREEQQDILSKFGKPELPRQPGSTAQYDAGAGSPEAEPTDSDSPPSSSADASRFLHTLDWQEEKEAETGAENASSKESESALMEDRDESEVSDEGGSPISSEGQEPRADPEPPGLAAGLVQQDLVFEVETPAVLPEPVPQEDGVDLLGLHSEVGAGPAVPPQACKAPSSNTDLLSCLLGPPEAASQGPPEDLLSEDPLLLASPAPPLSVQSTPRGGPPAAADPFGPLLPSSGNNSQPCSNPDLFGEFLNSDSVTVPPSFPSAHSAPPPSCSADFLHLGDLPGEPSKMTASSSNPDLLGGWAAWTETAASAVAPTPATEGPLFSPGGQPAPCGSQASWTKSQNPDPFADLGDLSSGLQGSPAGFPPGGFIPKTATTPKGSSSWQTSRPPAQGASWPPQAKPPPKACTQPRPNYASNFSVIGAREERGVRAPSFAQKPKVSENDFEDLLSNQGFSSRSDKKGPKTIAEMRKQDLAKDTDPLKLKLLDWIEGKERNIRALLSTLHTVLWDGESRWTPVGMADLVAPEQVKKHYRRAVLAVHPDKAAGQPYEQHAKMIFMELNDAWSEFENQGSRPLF

[4] = target: Interleukin-1 receptor-associated kinase 1 (Homo sapiens, UniProt P51617); assay: Inhibition of IRAK1 in human HBL1 cells assessed as reduction in phosphorylated IKBA level at up to 1 uM measured after 24 hrs by Western blot analysis; format: cell-based; conditions: dose microM <=1, time 24.0 hrs
Sequence of Interleukin-1 receptor-associated kinase 1 (P51617 whole entry, looked up): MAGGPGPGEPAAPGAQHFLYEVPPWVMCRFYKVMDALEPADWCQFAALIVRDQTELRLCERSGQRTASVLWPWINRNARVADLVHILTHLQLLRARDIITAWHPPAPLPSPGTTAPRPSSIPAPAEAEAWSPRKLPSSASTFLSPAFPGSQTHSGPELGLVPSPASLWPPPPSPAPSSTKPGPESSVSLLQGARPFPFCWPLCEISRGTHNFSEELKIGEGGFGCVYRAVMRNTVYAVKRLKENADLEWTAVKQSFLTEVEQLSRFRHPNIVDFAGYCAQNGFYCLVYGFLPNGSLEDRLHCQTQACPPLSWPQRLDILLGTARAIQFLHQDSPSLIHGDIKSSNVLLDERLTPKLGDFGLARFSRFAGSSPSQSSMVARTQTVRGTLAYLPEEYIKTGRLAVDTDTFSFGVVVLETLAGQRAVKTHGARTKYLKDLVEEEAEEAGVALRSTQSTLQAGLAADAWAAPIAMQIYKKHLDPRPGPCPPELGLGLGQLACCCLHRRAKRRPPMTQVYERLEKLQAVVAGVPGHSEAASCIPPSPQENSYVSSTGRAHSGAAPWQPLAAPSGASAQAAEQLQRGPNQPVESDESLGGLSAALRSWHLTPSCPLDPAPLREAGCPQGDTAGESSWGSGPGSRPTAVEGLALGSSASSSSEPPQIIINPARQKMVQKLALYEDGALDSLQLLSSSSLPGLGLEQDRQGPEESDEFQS

[5] = system: HBL1; assay: Induction of apoptosis in human HBL1 cells assessed as increase in PARP cleavage at up to 1 uM measured after 24 hrs by Western blot analysis; format: functional, cell-based; conditions: dose microM <=1, time 24.0 hrs
[6] = system: OCI-Ly10; assay: Cytotoxicity against human OCILY10 cells assessed as reduction in cell viability measured after 12 days by CellTiter-Glo assay; format: functional; conditions: time 12 day

Sequence of von Hippel-Lindau disease tumor suppressor/Interleukin-1 receptor-associated kinase 1 (P40337 whole entry, looked up, the tested form may be a part): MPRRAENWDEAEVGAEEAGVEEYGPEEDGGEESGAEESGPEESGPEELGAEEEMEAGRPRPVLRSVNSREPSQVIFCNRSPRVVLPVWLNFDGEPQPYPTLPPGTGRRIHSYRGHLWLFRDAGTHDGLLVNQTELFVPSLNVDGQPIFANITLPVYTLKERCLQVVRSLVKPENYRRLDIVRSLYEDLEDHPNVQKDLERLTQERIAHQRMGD
Sequence of von Hippel-Lindau disease tumor suppressor/Interleukin-1 receptor-associated kinase 1 (P51617 whole entry, looked up, the tested form may be a part): as the sequence (P51617 whole entry, looked up) above

COc1cc(N2CCC(OCC(=O)N[C@H](C(=O)N3C[C@H](O)C[C@H]3C(=O)N[C@@H](C)c3ccc(-c4scnc4C)cc3)C(C)(C)C)CC2)ccc1NC(=O)c1cccc(-c2ccn[nH]2)n1
%max [1]: 96%
inhibition [2]: Active
inhibition [3]: 63%
inhibition [4]: Active
Activity [5]: Active
Activity [6]: 170 nM

Source: ChEMBL document CHEMBL5029152, “Discovery of Highly Potent and Selective IRAK1 Degraders to Probe Scaffolding Functions of IRAK1 in ABC DLBCL” (J Med Chem, 2021)
